According to ChEMBL document CHEMBL1144794, “Synthesis of 4'-modified noraristeromycins to clarify the effect of the 4'-hydroxyl groups for inhibitory activity against S-adenosyl-L-homocysteine hydrolase” (Bioorg Med Chem Lett, 2008):
The source made the active and inactive calls. No cut-off for these calls is given here.

Columns and labels:
Adenosylhomocysteinase [1] = target: T1, Adenosylhomocysteinase (Homo sapiens, UniProt P23526); test: Inhibition of human recombinant SAHH at 1000 uM
Target sequence in this assay (P23526 2-432 limits assumed): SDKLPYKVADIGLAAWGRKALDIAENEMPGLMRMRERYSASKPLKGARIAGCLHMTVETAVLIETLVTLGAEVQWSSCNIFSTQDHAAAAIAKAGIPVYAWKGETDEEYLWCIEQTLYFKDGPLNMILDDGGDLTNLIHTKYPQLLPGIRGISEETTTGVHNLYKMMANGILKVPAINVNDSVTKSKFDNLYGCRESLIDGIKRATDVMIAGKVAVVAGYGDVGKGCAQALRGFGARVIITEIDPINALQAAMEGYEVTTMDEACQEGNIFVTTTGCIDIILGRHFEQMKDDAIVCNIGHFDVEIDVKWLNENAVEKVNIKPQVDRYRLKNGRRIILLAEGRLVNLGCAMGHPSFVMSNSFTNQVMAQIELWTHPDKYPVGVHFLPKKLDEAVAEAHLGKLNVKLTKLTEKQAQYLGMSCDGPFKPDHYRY

Plasmodium falciparum = test: (§1) Inhibition of Plasmodium falciparum recombinant SAHH at 1000 uM
Adenosylhomocysteinase [2] = target: T1, Adenosylhomocysteinase; test: Inhibition of human recombinant SAHH
Target sequence in this assay (P23526 whole entry): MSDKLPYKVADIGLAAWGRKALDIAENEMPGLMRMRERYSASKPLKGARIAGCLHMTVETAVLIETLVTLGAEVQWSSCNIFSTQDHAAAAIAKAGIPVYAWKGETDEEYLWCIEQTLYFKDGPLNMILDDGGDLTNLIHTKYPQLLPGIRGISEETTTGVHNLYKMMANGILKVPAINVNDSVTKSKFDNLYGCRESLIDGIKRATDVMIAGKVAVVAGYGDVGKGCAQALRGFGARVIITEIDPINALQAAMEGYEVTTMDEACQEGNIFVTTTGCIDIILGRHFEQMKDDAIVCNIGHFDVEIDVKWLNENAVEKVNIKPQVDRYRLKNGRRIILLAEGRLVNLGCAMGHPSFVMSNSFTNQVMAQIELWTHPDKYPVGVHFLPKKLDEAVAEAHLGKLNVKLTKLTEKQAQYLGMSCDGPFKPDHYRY

[3] = Inhibition of Plasmodium falciparum recombinant SAHH
[4] = as §1

Activity (Adenosylhomocysteinase [1]) | Activity (Plasmodium falciparum) | IC50 (Adenosylhomocysteinase [2]) | IC50 [3] | IC50 [4] | Structure (SMILES)
 |  | 76 µM | 126 µM |  | Nc1ncnc2c1ncn2[C@@H]1C[C@H](N)[C@@H](O)[C@H]1O
inactive | inactive |  |  |  | Nc1ncnc2c1ncn2[C@@H]1C[C@H](OS(N)(=O)=O)[C@@H](O)[C@H]1O
 |  | > 500 µM | > 500 µM |  | Nc1ncnc2c1ncn2[C@@H]1C[C@@H](N)[C@@H](O)[C@H]1O
inactive |  |  | 200 µM |  | Nc1ncnc2c1ncn2[C@@H]1C[C@H](F)[C@@H](O)[C@H]1O
 |  | 163 µM | 90 µM |  | [N-]=[N+]=N[C@@H]1C[C@@H](n2cnc3c(N)ncnc32)[C@H](O)[C@@H]1O
inactive | inactive |  |  |  | Nc1ncnc2c1ncn2[C@@H]1C[C@@H](F)[C@@H](O)[C@H]1O
inactive | inactive |  |  |  | Nc1ncnc2c1ncn2[C@@H]1C[C@@H](OS(N)(=O)=O)[C@@H](O)[C@H]1O
inactive | inactive |  |  |  | Nc1ncnc2c1ncn2[C@@H]1C[C@@H](OS(=O)(=O)O)[C@@H](O)[C@H]1O
 |  | 123 µM | 117 µM |  | [N-]=[N+]=N[C@H]1C[C@@H](n2cnc3c(N)ncnc32)[C@H](O)[C@@H]1O

More lines, now with the values behind:

Structure (SMILES) | Activity (Adenosylhomocysteinase [1]) | Activity (Plasmodium falciparum) | IC50 (Adenosylhomocysteinase [2]) | IC50 [3] | IC50 [4]
Nc1ncnc2c1ncn2[C@@H]1C[C@H](OS(=O)(=O)O)[C@@H](O)[C@H]1O | inactive | inactive |  |  | 
Nc1ncnc2c1ncn2[C@@H]1C[C@@H](O)[C@@H](O)[C@H]1O |  |  | 7.6 µM | 79 µM | 
Nc1nc(N)c2ncn([C@@H]3C[C@@H](OS(N)(=O)=O)[C@@H](O)[C@H]3O)c2n1 | inactive | inactive |  |  | 
Nc1nc(N)c2ncn([C@@H]3C[C@H](OS(=O)(=O)O)[C@@H](O)[C@H]3O)c2n1 | inactive | inactive |  |  | 
Nc1nc(N)c2ncn([C@@H]3C[C@@H](OS(=O)(=O)O)[C@@H](O)[C@H]3O)c2n1 | inactive | inactive |  |  | 
Nc1ncnc2c1ncn2[C@@H]1C[C@H](O)[C@@H](O)[C@H]1O [NORARISTEROMYCIN] |  |  | 3.1 µM | 1.1 µM | 
Nc1ncnc2c1ncn2[C@@H]1CC[C@@H](O)[C@H]1O |  |  |  |  | 9 µM
Nc1nc(N)c2ncn([C@@H]3C[C@H](OS(N)(=O)=O)[C@@H](O)[C@H]3O)c2n1 | inactive | inactive |  |  | 
Nc1nc(F)nc2c1ncn2[C@@H]1C[C@H](O)[C@@H](O)[C@H]1O |  |  | 13 µM | 63 µM | 
